BindingDB's records for patent WO2022098970 (Eli Lilly, 2022)

Experiments:
Assay in all cases: RET Enzyme Assay
[1] = biological target: Proto-oncogene tyrosine-protein kinase receptor Ret (Homo sapiens, UniProt P07949)
Method: (§1) Compounds of formulas I, la to lx, Ila to IIx, and/or Illa to IIIx are screened for their ability to inhibit wildtype, V804M, and G810S mutant RET kinase using CisBio s HTRF KinEASE -TK assay technology. N-terminal GST tagged recombinant human RET cytoplasmic domain (aa 658-end) from Eurofins (1.25 nM RET; Catalog No. 14-570M) or N-terminal GST tagged recombinant human V804M mutant RET cytoplasmic domain (aa 658-end) from Millipore (1.25 nM enzyme; Catalog No. 14-760) or N-Terminal GST-tagged recombinant human G810S (aa-658-end) (1.25 nM Enzyme; produced in insect cells) is incubated with 62.5 nM TK-substrate biotin (CisBio, part of Catalog No. 62TK0PEC) and 1 mM ATP along with test compound (0.4% final DMSO in the assay) in a IX Cisbuio enzymatic buffer consisting of […], 5 mM MgCh, 0.04% BSA and 0.05% Tween20 in a volume of 10 pL. Compounds are typically prepared in a threefold serial dilution in DMSO and added to the assay to give the appropriate final concentration. After a 40-60 min (40 min for V804M, 60 min for WT and G810S) incubation at 22 °C, the reaction is quenched by adding quench solution (10 pL) containing 7.8 nM Streptavidine-XL665 and 0.5X TK-ab-Cryptate in HTRF detection buffer (all from CisBio, part of Cat. No. 62TK0PEC). After a 60-80 min incubation (60 minutes for WT, 80 minutes for V804M and G810S) at 22 °C, the extent of reaction is determined using a PHERastar plate reader via HTRF detection at excitation/emission 337/665 nm. Percent of inhibition is calculated with 0% inhibition referring to control conditions containing no compound (0.4% DMSO only) and 100% inhibition represented by conditions containing no enzyme. The % inhibition values are fit to a 4 parameter logistic curve, and the determined IC5o value is defined as the estimated concentration of inhibitor at the inflexion point of the fitted curve.

[2] = biological target: Proto-oncogene tyrosine-protein kinase receptor Ret [G810S] (Homo sapiens, UniProt P07949, G810S)
Method: as §1

[3] = biological target: Proto-oncogene tyrosine-protein kinase receptor Ret [V804M] (Human, UniProt P07949, V804M)
Method: as §1

Measured: IC50

Chain of Proto-oncogene tyrosine-protein kinase receptor Ret [V804M] (P07949 29-1114 V804M limits assumed): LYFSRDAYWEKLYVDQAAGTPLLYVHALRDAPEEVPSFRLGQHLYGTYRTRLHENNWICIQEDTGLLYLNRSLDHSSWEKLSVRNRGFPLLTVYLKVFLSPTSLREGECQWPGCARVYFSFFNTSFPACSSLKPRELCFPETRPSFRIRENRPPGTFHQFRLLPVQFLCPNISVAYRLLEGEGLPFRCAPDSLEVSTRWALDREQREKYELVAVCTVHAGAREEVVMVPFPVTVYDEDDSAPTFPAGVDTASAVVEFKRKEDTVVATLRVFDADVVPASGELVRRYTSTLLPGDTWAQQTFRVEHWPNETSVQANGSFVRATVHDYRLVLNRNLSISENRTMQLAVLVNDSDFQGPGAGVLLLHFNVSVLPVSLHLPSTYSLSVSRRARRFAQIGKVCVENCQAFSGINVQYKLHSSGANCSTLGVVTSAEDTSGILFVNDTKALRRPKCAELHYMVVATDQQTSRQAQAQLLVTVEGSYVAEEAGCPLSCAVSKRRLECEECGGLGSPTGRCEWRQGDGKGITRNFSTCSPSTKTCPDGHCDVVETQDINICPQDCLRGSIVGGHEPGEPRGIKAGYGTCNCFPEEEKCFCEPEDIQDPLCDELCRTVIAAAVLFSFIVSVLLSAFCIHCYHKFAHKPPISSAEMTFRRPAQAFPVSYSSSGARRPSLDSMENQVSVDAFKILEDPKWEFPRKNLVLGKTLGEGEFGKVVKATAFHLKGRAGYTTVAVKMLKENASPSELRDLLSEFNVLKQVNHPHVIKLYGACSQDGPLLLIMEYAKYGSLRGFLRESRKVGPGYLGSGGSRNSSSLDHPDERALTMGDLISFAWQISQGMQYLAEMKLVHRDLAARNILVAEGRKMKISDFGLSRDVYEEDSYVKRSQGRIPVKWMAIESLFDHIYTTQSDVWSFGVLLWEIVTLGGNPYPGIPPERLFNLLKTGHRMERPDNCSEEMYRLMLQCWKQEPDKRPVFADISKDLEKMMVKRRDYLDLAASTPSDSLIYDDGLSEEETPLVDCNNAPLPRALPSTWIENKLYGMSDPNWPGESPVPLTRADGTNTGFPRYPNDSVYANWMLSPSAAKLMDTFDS
Chain of Proto-oncogene tyrosine-protein kinase receptor Ret (P07949 whole entry, the tested form may be a part): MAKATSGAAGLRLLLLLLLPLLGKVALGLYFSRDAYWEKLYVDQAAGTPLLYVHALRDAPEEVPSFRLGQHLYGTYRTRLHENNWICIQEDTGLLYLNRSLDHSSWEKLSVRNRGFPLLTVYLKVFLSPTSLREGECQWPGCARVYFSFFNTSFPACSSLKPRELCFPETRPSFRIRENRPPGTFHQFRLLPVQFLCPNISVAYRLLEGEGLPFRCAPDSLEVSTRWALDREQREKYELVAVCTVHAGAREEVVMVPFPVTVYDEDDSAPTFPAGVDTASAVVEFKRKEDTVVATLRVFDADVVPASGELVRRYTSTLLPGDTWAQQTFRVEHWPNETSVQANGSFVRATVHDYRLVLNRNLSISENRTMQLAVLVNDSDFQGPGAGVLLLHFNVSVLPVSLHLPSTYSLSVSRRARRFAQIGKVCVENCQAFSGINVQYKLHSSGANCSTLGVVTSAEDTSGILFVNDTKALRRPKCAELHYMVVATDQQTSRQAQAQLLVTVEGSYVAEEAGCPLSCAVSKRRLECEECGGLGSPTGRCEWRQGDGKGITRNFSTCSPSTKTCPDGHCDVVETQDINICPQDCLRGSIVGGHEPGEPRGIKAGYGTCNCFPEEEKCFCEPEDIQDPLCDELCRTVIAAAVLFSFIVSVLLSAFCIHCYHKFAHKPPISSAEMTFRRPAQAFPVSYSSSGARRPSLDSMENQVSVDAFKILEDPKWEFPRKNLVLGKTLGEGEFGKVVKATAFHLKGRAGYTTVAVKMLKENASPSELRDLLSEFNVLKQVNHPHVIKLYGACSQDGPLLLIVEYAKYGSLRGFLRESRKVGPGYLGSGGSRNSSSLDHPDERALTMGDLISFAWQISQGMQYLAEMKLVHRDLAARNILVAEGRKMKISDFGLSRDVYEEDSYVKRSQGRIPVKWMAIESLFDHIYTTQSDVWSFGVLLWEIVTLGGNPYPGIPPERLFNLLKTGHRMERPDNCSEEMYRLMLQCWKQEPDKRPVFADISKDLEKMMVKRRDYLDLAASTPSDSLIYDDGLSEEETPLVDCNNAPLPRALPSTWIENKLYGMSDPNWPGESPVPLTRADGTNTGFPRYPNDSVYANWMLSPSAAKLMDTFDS
Chain of Proto-oncogene tyrosine-protein kinase receptor Ret [G810S] (P07949 29-1114 G810S limits assumed): as the sequence (P07949 29-1114 V804M limits assumed) above, with M776V, G782S counted along it

CC(C)n1nc(-c2ccc(CC(=O)Nc3cc(C4(C)CCCC4)no3)cn2)c(C(N)=O)c1N [WO2022098970, Example 294]
< 150 nM: all assays above

CC(C)n1nc(-c2ccc(CC(=O)Nc3cc(C45CC(C(F)(F)F)(C4)C5)no3)cc2)c(C(N)=O)c1N [WO2022098970, Example 153]
< 150 nM: all assays above

CC(C)n1nc(-c2ccc(CC(=O)Nc3cc(-c4ccccc4Cl)no3)nc2)c(C(N)=O)c1N [WO2022098970, Example 317]
< 150 nM: all assays above

CC(C)n1nc(-c2ccc(CC(=O)Nc3cc(C4(C)CC4)no3)cc2)c(C(N)=O)c1N [WO2022098970, Example 7]
< 150 nM: all assays above

CCC(C)(C)c1cc(NC(=O)Cc2cnc(-c3nn(C(C)C)c(N)c3C(N)=O)cn2)on1 [WO2022098970, Example 310]
< 150 nM: all assays above

CC(C)n1nc(-c2ccc(CC(=O)Nc3cc(C(C)(C)C(F)(F)F)n(C)n3)cc2)c(C(N)=O)c1N [WO2022098970, Example 8]
< 150 nM: all assays above

CC(C)n1nc(-c2ccc(CC(=O)Nc3cc(C(C)(C)C(F)(F)F)no3)cc2)c(C(N)=O)c1N [WO2022098970, Example 2]
< 150 nM: all assays above

CC(C)n1nc(-c2ccc(CC(=O)Nc3cc(CC4(C)CC4)no3)cc2)c(C(N)=O)c1N [WO2022098970, Example 1]
< 150 nM: all assays above

CC(C)n1nc(-c2ccc(CC(=O)Nc3cc(-c4ccccc4)no3)cn2)c(C(N)=O)c1N [WO2022098970, Example 299]
< 150 nM: all assays above

CC(C)n1nc(-c2ccc(CC(=O)Nc3cc(C4CCCCC4)no3)cn2)c(C(N)=O)c1N [WO2022098970, Example 301]
< 150 nM: all assays above

CC1(n2nc(-c3ccc(CC(=O)Nc4cc(C56CC(F)(C5)C6)no4)c(F)c3F)c(C(N)=O)c2N)CC1 [WO2022098970, Example 221]
< 150 nM: all assays above

CC(C)n1nc(-c2ccc(CC(=O)Nc3cc(-c4ccc(Cl)c(F)c4Cl)no3)nc2)c(C(N)=O)c1N [WO2022098970, Example 330]
< 150 nM: all assays above

CC(C)n1nc(-c2ccc(CC(=O)Nc3cc(-c4ccc(Cl)cc4Cl)no3)nc2)c(C(N)=O)c1N [WO2022098970, Example 316]
< 150 nM: all assays above

CC(C)n1nc(-c2ccc(CC(=O)Nc3cc(C(C)(F)F)no3)cn2)c(C(N)=O)c1N [WO2022098970, Example 306]
< 150 nM: all assays above

CC(C)n1nc(-c2ccc(CC(=O)Nc3cc(C(C)(C)C)on3)nc2)c(C(N)=O)c1N [WO2022098970, Example 318]
< 150 nM: all assays above

CC(C)n1nc(-c2ccc(CC(=O)Nc3cc(C(C)(C)C(F)(F)F)on3)cn2)c(C(N)=O)c1N [WO2022098970, Example 293]
< 150 nM: all assays above

CC(C)n1nc(-c2ccc(CC(=O)NC3C=C(C(C)(C)C)SN3)cn2)c(C(N)=O)c1N (configuration not stated) [WO2022098970, Example 10]
< 150 nM: all assays above

CC(C)n1nc(-c2cnc(CC(=O)Nc3cc(-c4ccc(Cl)cc4Cl)no3)cn2)c(C(N)=O)c1N [WO2022098970, Example 308]
< 150 nM: all assays above

CC(C)n1nc(-c2cnc(CC(=O)Nc3cc(C(C)(C)C)on3)cn2)c(C(N)=O)c1N [WO2022098970, Example 311]
< 150 nM: all assays above

CC(C)n1nc(-c2ccc(CC(=O)Nc3cc(CC(C)(C)C)no3)c(F)c2F)c(C(N)=O)c1N [WO2022098970, Example 154]
< 150 nM: all assays above

CC(C)n1nc(-c2ccc(CC(=O)Nc3cc(C45CC(F)(C4)C5)no3)cc2)c(C(N)=O)c1N [WO2022098970, Example 4]
< 150 nM: all assays above

Cc1ccc(-c2cc(NC(=O)Cc3ccc(-c4nn(C(C)C)c(N)c4C(N)=O)cn3)on2)c(F)c1 [WO2022098970, Example 324]
< 150 nM: all assays above

CC(C)n1nc(-c2ccc(CC(=O)Nc3cc(-c4ccc(Cl)cc4Cl)no3)cn2)c(C(N)=O)c1N [WO2022098970, Example 300]
< 150 nM: all assays above

CCC(C)(C)c1cc(NC(=O)Cc2ccc(-c3nn(C(C)C)c(N)c3C(N)=O)nc2)on1 [WO2022098970, Example 303]
< 150 nM: all assays above

CC1(n2nc(-c3ccc(CC(=O)Nc4cc(C(C)(C)C(F)(F)F)no4)cc3)c(C(N)=O)c2N)CC1 [WO2022098970, Example 6]
< 150 nM: all assays above

CC12CC(c3cc(NC(=O)Cc4ccc(-c5nn(C6(C)CC6)c(N)c5C(N)=O)c(F)c4F)on3)(C1)C2 [WO2022098970, Example 222]
< 150 nM: all assays above

CC(C)n1nc(-c2ccc(CC(=O)Nc3cc(-c4ccc(Cl)cc4F)no3)nc2)c(C(N)=O)c1N [WO2022098970, Example 321]
< 150 nM: all assays above

CC(C)n1nc(-c2ccc(CC(=O)Nc3ccc(CN4CCN(C)CC4)c(C(F)(F)F)c3)nc2)c(C(N)=O)c1N [WO2022098970, Example 329]
< 150 nM: all assays above

CC1(n2nc(-c3ccc(CC(=O)Nc4cc(-c5ccc(F)cc5Cl)no4)cc3)c(C(N)=O)c2N)CC1 [WO2022098970, Example 199]
< 150 nM: all assays above

CC(C)n1nc(-c2ccc(CC(=O)Nc3cccc(C(F)(F)F)c3)cn2)c(C(N)=O)c1N [WO2022098970, Example 292]
< 150 nM: all assays above

CC(C)n1nc(-c2ccc(CC(=O)Nc3cc(C(C)(C)CC(F)(F)F)on3)nc2)c(C(N)=O)c1N [WO2022098970, Example 335]
< 150 nM: all assays above

CC(C)n1nc(-c2ccc(CC(=O)Nc3cc(-c4ccc(F)cc4Cl)no3)cn2)c(C(N)=O)c1N [WO2022098970, Example 302]
< 150 nM: all assays above

CC(C)n1nc(-c2ccc(CC(=O)Nc3cc(C45CC(C4)C5)no3)cc2)c(C(N)=O)c1N [WO2022098970, Example 5]
< 150 nM: all assays above

CC(C)n1nc(-c2ccc(CC(=O)Nc3cc(C4(C)CCCC4)no3)cc2)c(C(N)=O)c1N [WO2022098970, Example 3]
< 150 nM: all assays above
